Reference: patent US20260262643A1, “HERBICIDAL BENZOXAZINES” (FMC CORPORATION, priority 2022, published 2026)

How the values were obtained:
galium = test: Test A postemergence; format: in vivo, Galium aparine; conditions: postemergence, 10 days; for Plant response rating, Galium: 500 g ai/ha, visual injury, 0 to 100 scale (0 no effect, 100 complete control)
How it was run: (§1)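 Seeds in loam–sand blend received a directed preemergence soil spray of compound in non-phytotoxic solvent with surfactant; postemergence plants (2–10 cm, one- to two-leaf stage) were sprayed with the same formulation. After 10 days in greenhouse, injury was rated visually versus untreated controls, 0 (no effect) to 100 (complete control).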

barnyardgrass [1] = test: Test A preemergence; format: in vivo, Echinochloa crusgalli; conditions: visual injury after 10 days, 0 to 100 scale, 0 is no effect, 100 is complete control
How it was run: as §1

ragweed [2] = test: Test A postemergence; format: in vivo, Ambrosia artemisiifolia; conditions: postemergence, 10 days; for Ragweed plant response rating: 125 g ai/ha, 0 to 100 scale, 0 no effect, 100 complete control; for Plant response rating, Ragweed: 500 g ai/ha, visual injury, 0 to 100 scale (0 no effect, 100 complete control)
How it was run: as §1

kochia [3] = test: Test A postemergence; format: in vivo, Bassia scoparia; conditions: postemergence, 10 days; for Kochia plant response rating: 125 g ai/ha, 0 to 100 scale, 0 no effect, 100 complete control; for Plant response rating, Kochia: 500 g ai/ha, visual injury, 0 to 100 scale (0 no effect, 100 complete control)
How it was run: as §1

oat, wild [4] = test: Test A preemergence; format: in vivo, Avena fatua; conditions: 0 to 100 scale
How it was run: as §1

barnyardgrass [5] = test: Test A postemergence; format: in vivo, Echinochloa crusgalli; conditions: postemergence, 10 days; for Barnyardgrass plant response rating: 125 g ai/ha, 0 to 100 scale, 0 no effect, 100 complete control; for Plant response rating, Barnyardgrass: 500 g ai/ha, visual injury, 0 to 100 scale (0 no effect, 100 complete control)
How it was run: as §1

pigweed, palmer [6] = test: Test A preemergence; format: in vivo, Amaranthus palmeri; conditions: 0 to 100 scale
How it was run: as §1

barnyardgrass [7] = test: Test B flooded paddy test; format: in vivo, Echinochloa crus-galli; conditions: 250 g ai/ha, Flood, 13 days, 0 to 100 scale (0 no effect, 100 complete control)
How it was run: (§2)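 Visual scores from 0 (no effect) to 100 (complete kill) were assigned 13 days after treatment by comparison with controls. Seedlings had been treated at two leaves by adding compound to floodwater standing 3 cm deep, kept at that level in the greenhouse.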

soybean [8] = test: Test A preemergence; format: in vivo, Glycine max; conditions: 0 to 100 scale
How it was run: as §1

oat, wild [9] = test: Test A postemergence; format: in vivo, Avena fatua; conditions: postemergence, 10 days; for Oat, Wild plant response rating: 125 g ai/ha, 0 to 100 scale, 0 no effect, 100 complete control; for Plant response rating, Oat, Wild: 500 g ai/ha, visual injury, 0 to 100 scale (0 no effect, 100 complete control)
How it was run: as §1

corn [10] = test: Test A preemergence; format: in vivo, Zea mays; conditions: 0 to 100 scale
How it was run: as §1

wheat [11] = test: Test A preemergence; format: in vivo, Triticum aestivum; conditions: 0 to 100 scale
How it was run: as §1

kochia [12] = test: Test A preemergence; format: in vivo, Bassia scoparia; conditions: 0 to 100 scale
How it was run: as §1

ryegrass, Italian [13] = test: Test A preemergence; format: in vivo, Lolium multiflorum; conditions: 0 to 100 scale
How it was run: as §1

ducksalad = test: Test B flooded paddy test; format: in vivo, Heteranthera limosa; conditions: 250 g ai/ha, Flood, 13 days, 0 to 100 scale (0 no effect, 100 complete control)
How it was run: as §2

horseweed = test: Test A postemergence; format: in vivo, Erigeron canadensis; conditions: postemergence, 10 days; for Horseweed plant response rating: 125 g ai/ha, 0 to 100 scale, 0 no effect, 100 complete control; for Plant response rating, Horseweed: 500 g ai/ha, visual injury, 0 to 100 scale (0 no effect, 100 complete control)
How it was run: as §1

wheat [14] = test: Test A postemergence; format: in vivo, Triticum aestivum; conditions: postemergence, 10 days; for Wheat plant response rating: 125 g ai/ha, 0 to 100 scale, 0 no effect, 100 complete control; for Plant response rating, Wheat: 500 g ai/ha, visual injury, 0 to 100 scale (0 no effect, 100 complete control)
How it was run: as §1

soybean [15] = test: Test A postemergence; format: in vivo, Glycine max; conditions: postemergence, 10 days; for Soybean plant response rating: 125 g ai/ha, 0 to 100 scale, 0 no effect, 100 complete control; for Plant response rating, Soybean: 500 g ai/ha, visual injury, 0 to 100 scale (0 no effect, 100 complete control)
How it was run: as §1

ragweed [16] = test: Test A preemergence; format: in vivo, Ambrosia artemisiifolia; conditions: 0 to 100 scale
How it was run: as §1

rice = test: Test B flooded paddy test; format: in vivo, Oryza sativa; conditions: 250 g ai/ha, Flood, 13 days, 0 to 100 scale (0 no effect, 100 complete control)
How it was run: as §2

corn [17] = test: Test A postemergence; format: in vivo, Zea mays; conditions: postemergence, 10 days; for Corn plant response rating: 125 g ai/ha, 0 to 100 scale, 0 no effect, 100 complete control; for Plant response rating, Corn: 500 g ai/ha, visual injury, 0 to 100 scale (0 no effect, 100 complete control)
How it was run: as §1

sedge, umbrella = test: Test B flooded paddy test; format: in vivo, Cyperus difformis; conditions: 250 g ai/ha, Flood, 13 days, 0 to 100 scale (0 no effect, 100 complete control)
How it was run: as §2

pigweed, palmer [18] = test: Test A postemergence; format: in vivo, Amaranthus palmeri; conditions: postemergence, 10 days; for Plant response rating, Pigweed, Palmer: 500 g ai/ha, visual injury, 0 to 100 scale (0 no effect, 100 complete control)
How it was run: as §1

foxtail, giant [19] = test: Test A postemergence; format: in vivo, Setaria faberi; conditions: postemergence, 10 days; for Foxtail, Giant plant response rating: 125 g ai/ha, 0 to 100 scale, 0 no effect, 100 complete control; for Plant response rating, Foxtail, Giant: 500 g ai/ha, visual injury, 0 to 100 scale (0 no effect, 100 complete control)
How it was run: as §1

blackgrass [20] = test: Test A postemergence; format: in vivo, Alopecurus myosuroides; conditions: postemergence, 10 days; for Blackgrass plant response rating: 125 g ai/ha, 0 to 100 scale, 0 no effect, 100 complete control; for Plant response rating, Blackgrass: 500 g ai/ha, visual injury, 0 to 100 scale (0 no effect, 100 complete control)
How it was run: as §1

ryegrass, Italian [21] = test: Test A postemergence; format: in vivo, Lolium multiflorum; conditions: postemergence, 10 days; for Ryegrass, Italian plant response rating: 125 g ai/ha, 0 to 100 scale, 0 no effect, 100 complete control; for Plant response rating, Ryegrass, Italian: 500 g ai/ha, visual injury, 0 to 100 scale (0 no effect, 100 complete control)
How it was run: as §1

blackgrass [22] = test: Test A preemergence; format: in vivo, Alopecurus myosuroides; conditions: 0 to 100 scale
How it was run: as §1

foxtail, giant [23] = test: Test A preemergence; format: in vivo, Setaria faberi; conditions: 0 to 100 scale
How it was run: as §1

[24] = 500 g ai/ha, visual injury after 10 days, 0 is no effect, 100 is complete control
[25] = 125 g ai/ha, 0 to 100 scale, 0 no effect, 100 complete control

## Cc1nc(C)n(-c2cccc(C(=O)N3C[C@H](C)Oc4c(Cl)cccc43)c2)n1 [Compound 142]
galium
  Plant response rating, Galium: 30
Barnyardgrass [1]; 125 g ai/ha
  Plant response rating, Barnyardgrass: 30
Barnyardgrass [1]; 500 g ai/ha
  Plant response rating, Barnyardgrass: 50
Ragweed [2]
  Ragweed plant response rating: 0
  Plant response rating, Ragweed: 20
Kochia [3]
  Kochia plant response rating: 10
  Plant response rating, Kochia: 50
oat, wild [4]; 125 g ai/ha
  Plant response rating, Oat, Wild: 0
oat, wild [4]; [24]
  Plant response rating, Oat, Wild: 0
Barnyardgrass [5]
  Barnyardgrass plant response rating: 10
  Plant response rating, Barnyardgrass: 10
pigweed, palmer [6]; 125 g ai/ha
  Plant response rating, Pigweed, Palmer: 0
pigweed, palmer [6]; [24]
  Plant response rating, Pigweed, Palmer: 20
Barnyardgrass [7]
  Plant response rating, Barnyardgrass: 0
Soybean [8]; 125 g ai/ha
  Plant response rating, Soybean: 0
Soybean [8]; [24]
  Plant response rating, Soybean: 0
oat, wild [9]
  Oat, Wild plant response rating: 0
  Plant response rating, Oat, Wild: 0
Corn [10]; 125 g ai/ha
  Plant response rating, Corn: 0
Corn [10]; [24]
  Plant response rating, Corn: 10
Wheat [11]; 125 g ai/ha
  Plant response rating, Wheat: 0
Wheat [11]; [24]
  Plant response rating, Wheat: 0
Kochia [12]; 125 g ai/ha
  Plant response rating, Kochia: 0
Kochia [12]; [24]
  Plant response rating, Kochia: 40
ryegrass, Italian [13]; 125 g ai/ha
  Plant response rating, Ryegrass, Italian: 30
ryegrass, Italian [13]; [24]
  Plant response rating, Ryegrass, Italian: 50
ducksalad
  Plant response rating, Ducksalad: 0
horseweed
  Horseweed plant response rating: 0
  Plant response rating, Horseweed: 0
Wheat [14]
  Wheat plant response rating: 10
  Plant response rating, Wheat: 10
Soybean [15]
  Soybean plant response rating: 40
  Plant response rating, Soybean: 40
Ragweed [16]; 125 g ai/ha
  Plant response rating, Ragweed: 0
Ragweed [16]; [24]
  Plant response rating, Ragweed: 0
rice
  Plant response rating, Rice: 0
Corn [17]
  Corn plant response rating: 10
  Plant response rating, Corn: 10
sedge, umbrella
  Plant response rating, Sedge, Umbrella: 0
pigweed, palmer [18]
  Plant response rating, Pigweed, Palmer: 20
foxtail, giant [19]
  Foxtail, Giant plant response rating: 30
  Plant response rating, Foxtail, Giant: 80
Blackgrass [20]
  Blackgrass plant response rating: 0
  Plant response rating, Blackgrass: 60
ryegrass, Italian [21]
  Ryegrass, Italian plant response rating: 0
  Plant response rating, Ryegrass, Italian: 20
Blackgrass [22]; 125 g ai/ha
  Plant response rating, Blackgrass: 0
Blackgrass [22]; [24]
  Plant response rating, Blackgrass: 30
foxtail, giant [23]; 125 g ai/ha
  Plant response rating, Foxtail, Giant: 30
foxtail, giant [23]; [24]
  Plant response rating, Foxtail, Giant: 90

## CC(C)c1ncn(-c2ccc(OC(F)F)c(C(=O)N3C[C@H](C)Oc4c(Cl)cccc43)c2)n1 [Compound 143]
galium; [25]
  Galium plant response rating: 100
galium
  Plant response rating, Galium: 100
Barnyardgrass [1]; 125 g ai/ha
  Plant response rating, Barnyardgrass: 90
Barnyardgrass [1]; 500 g ai/ha
  Plant response rating, Barnyardgrass: 100
Ragweed [2]
  Ragweed plant response rating: 40
  Plant response rating, Ragweed: 70
Kochia [3]
  Kochia plant response rating: 90
  Plant response rating, Kochia: 90
oat, wild [4]; 125 g ai/ha
  Plant response rating, Oat, Wild: 60
oat, wild [4]; [24]
  Plant response rating, Oat, Wild: 90
Barnyardgrass [5]
  Barnyardgrass plant response rating: 50
  Plant response rating, Barnyardgrass: 90
pigweed, palmer [6]; 125 g ai/ha
  Plant response rating, Pigweed, Palmer: 100
pigweed, palmer [6]; [24]
  Plant response rating, Pigweed, Palmer: 100
Barnyardgrass [7]
  Plant response rating, Barnyardgrass: 40
Soybean [8]; 125 g ai/ha
  Plant response rating, Soybean: 100
Soybean [8]; [24]
  Plant response rating, Soybean: 100
oat, wild [9]
  Oat, Wild plant response rating: 10
  Plant response rating, Oat, Wild: 70
Corn [10]; 125 g ai/ha
  Plant response rating, Corn: 10
Corn [10]; [24]
  Plant response rating, Corn: 40
Wheat [11]; 125 g ai/ha
  Plant response rating, Wheat: 90
Wheat [11]; [24]
  Plant response rating, Wheat: 50
Kochia [12]; 125 g ai/ha
  Plant response rating, Kochia: 80
Kochia [12]; [24]
  Plant response rating, Kochia: 100
ryegrass, Italian [13]; 125 g ai/ha
  Plant response rating, Ryegrass, Italian: 80
ryegrass, Italian [13]; [24]
  Plant response rating, Ryegrass, Italian: 90
ducksalad
  Plant response rating, Ducksalad: 65
horseweed
  Horseweed plant response rating: 20
  Plant response rating, Horseweed: 50
Wheat [14]
  Wheat plant response rating: 30
  Plant response rating, Wheat: 40
Soybean [15]
  Soybean plant response rating: 100
  Plant response rating, Soybean: 100
Ragweed [16]; 125 g ai/ha
  Plant response rating, Ragweed: 30
Ragweed [16]; [24]
  Plant response rating, Ragweed: 90
rice
  Plant response rating, Rice: 0
Corn [17]
  Corn plant response rating: 90
  Plant response rating, Corn: 90
sedge, umbrella
  Plant response rating, Sedge, Umbrella: 98
pigweed, palmer [18]; [25]
  Pigweed, Palmer plant response rating: 60
pigweed, palmer [18]
  Plant response rating, Pigweed, Palmer: 80
foxtail, giant [19]
  Foxtail, Giant plant response rating: 90
  Plant response rating, Foxtail, Giant: 90
Blackgrass [20]
  Blackgrass plant response rating: 80
  Plant response rating, Blackgrass: 90
ryegrass, Italian [21]
  Ryegrass, Italian plant response rating: 50
  Plant response rating, Ryegrass, Italian: 80
Blackgrass [22]; 125 g ai/ha
  Plant response rating, Blackgrass: 40
Blackgrass [22]; [24]
  Plant response rating, Blackgrass: 70
foxtail, giant [23]; 125 g ai/ha
  Plant response rating, Foxtail, Giant: 100
foxtail, giant [23]; [24]
  Plant response rating, Foxtail, Giant: 100
